Assay [1] deals with T1, ACSS2 (Homo sapiens, UniProt Q9NR19). As to the kind of experiment: cell-based.
Method: (§1) ACSS2 Cellular Activity Assay (Cellular IC50)
(§2) The cellular activity of ACSS2 was based on tracing the incorporation of carbons from ^13C-Acetate into fatty-acids.
(§3) BT474/MDA-MB-468 cells growing in DMEM+25 mM D-glucose+1 mM sodium pyruvate+10% FBS+2 mM glutamine were plated in 12-well plates at 0.4×10^6 cells/well. The cells were then incubated at CO2 incubator for 24 hrs at hypoxic conditions (1% O2) before treated with compounds. At day 2, the medium was replaced to DMEM medium containing 15 mM Glucose, 1 mM Pyruvate, 0.65 mM Glutamine, 1% Dialyzed serum, 3.5 ug/ml Biotin, 0.2 mM ^13C-Acetate and various concentrations of the compounds. The cells were incubated for 5 hours at CO2 incubator in hypoxic conditions (1% O2). At the end of the 5 hours' incubation, the cells were washed twice with cold PBS, harvested in 1 ml PBS and transfer into V-shaped HPLC glass vials and centrifuge for 10 min at 600 g at 4 C. The supernatant was removed, and the cells' pellets were stored at −80° C. until taken for saponification.
(§4) The cells pellets were resuspended with 0.5 ml of the 90% Methanol, 10% H2O, 0.3M NaOH mixture and incubated at 80° C. for 60 min. Following the incubation, 50 μl formic acid and 0.4 ml hexane were added and the mixture was vortexed for 2 minutes. The vials were left few minutes for phases separation and then 200 μl of the top hexane phase extracted to a new glass vial. The hexane was dried under nitrogen and reconstituted in 100 μl of Methanol:Acetonitrile 5:3 mixture. The solution transferred to Eppendorf tubes, spun down at 17000 G for 20 min and transferred to LC-MS vials.
(§5) The analysis was performed with Thermo Q Exactive mass spectrometer with HESI probe and Dionex Ultimate 3000 UHPLC system. The separations were performed on Phenomenex Kintex 2.6u XB-C18 100A 150×2.10 mm column by injecting 5 ul of each sample. The chromatography started with a linear gradient from 85% to 100% of organic solvent (Methanol:Acetonitrile 1:1) versus 10 mM Ammonium Acetate buffer pH 4.7 for 3.5 minutes, followed by 4.5 minutes of isocratic 100% organic solvent and then 3 minutes of isocratic initial conditions, at a flow rate of 0.3 ul/min. The MS source conditions that were used: capillary temperature 325° C., sheath flow 25, aux flow 15, spray voltage 3.8 kV, aux temperature 300° C. The data collected from Negative ion mode at resolution of 70000 at Full-MS mode in 75-1000 m/z range.
(§6) The analysis of ^13C acetate incorporation into fatty acids (palmitate, myristate and stearate) performed on TraceFinder 3.2.512.0. The negative control areas and ^13C isotopic theoretical natural abundance were subtracted from the samples areas. Total ^13C incorporation for each fatty-acid (palmitate, myristate and stearate) was calculated and presented as percentage of the total amount.
The target in assay [2] is T1, ACSS2. As to the kind of experiment: biochemical.
Method: ACSS2 Cell-Free Activity Assay (Cell-Free IC50)
The assay is based on a coupling reaction with Pyrophosphatase: ACSS2 is converting ATP+CoA+Acetate=>AMP+pyrophosphate+Acetyl-CoA (Ac-CoA). Pyrophosphatase converts pyrophosphate, a product of the ACSS2 reaction, to phosphate which can be detected by measuring the absorbance at 620 nm after incubation with the Biomol green reagent (Enzo life Science, BML-AK111).
Cell-free IC50 Determination:
At the end of the reaction, Biomol Green was added for 30 minutes at RT and the activity was measured by reading the absorbance at 620 nm.
The target of assay [3] is T1, ACSS2. As to the kind of experiment: cell-based. This is another data set of the same source.
Method: Testing the inhibitory effect of compounds on the cellular activity of ACSS2 was done by tracing the incorporation of ^13C from ^13C-acetate into fatty-acids in MDA-MB-468 cells under hypoxic conditions of 1% 02. The assay was done for 5 hours in DMEM with 5.5 mM glucose, 1 mM sodium Pyruvate, 0.65 mM Glutamine, 3.5 ug/ml Biotin, 1% dialyzed serum, 0.5 mM 13C-acetate and with different concentrations of the inhibitors. At the end of the incubation, the cells were washed with cold PBS, harvested into glass tubes and undergo saponification. The level of ^13C incorporation into Palmitate was done by LC-MS analysis and the level of inhibition was calculated with PRISM software.
The target in assay [4] is T1, ACSS2. As to the kind of experiment: cell-based. This is another data set of the same source.
Method: as §1, §2, §3, §4, §5, §6

Several values for one entry are separate records, joined by “and”; a condition that tells them apart may be missing. Equal values may be shown once.

T1 sequence (Q9NR19 whole entry): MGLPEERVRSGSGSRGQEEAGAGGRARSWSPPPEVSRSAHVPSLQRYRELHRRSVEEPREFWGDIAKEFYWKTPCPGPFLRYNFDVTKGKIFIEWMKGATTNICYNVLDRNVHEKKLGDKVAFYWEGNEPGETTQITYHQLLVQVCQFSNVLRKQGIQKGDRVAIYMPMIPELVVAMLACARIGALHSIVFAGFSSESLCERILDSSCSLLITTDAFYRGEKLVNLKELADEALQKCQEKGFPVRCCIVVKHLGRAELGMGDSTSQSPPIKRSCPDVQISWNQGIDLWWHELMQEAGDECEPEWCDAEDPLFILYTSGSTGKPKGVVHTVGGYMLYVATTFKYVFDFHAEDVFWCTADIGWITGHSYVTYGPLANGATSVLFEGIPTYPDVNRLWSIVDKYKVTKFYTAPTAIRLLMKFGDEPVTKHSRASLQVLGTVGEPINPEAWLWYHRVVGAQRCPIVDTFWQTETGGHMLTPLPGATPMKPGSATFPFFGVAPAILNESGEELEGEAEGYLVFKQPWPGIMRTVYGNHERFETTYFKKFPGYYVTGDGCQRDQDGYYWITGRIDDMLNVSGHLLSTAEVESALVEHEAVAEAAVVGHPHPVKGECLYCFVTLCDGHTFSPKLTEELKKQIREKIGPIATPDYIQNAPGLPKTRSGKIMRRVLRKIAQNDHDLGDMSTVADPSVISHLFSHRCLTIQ

Consider `CC1=NN(c2ccccc2)C(=O)C1C(=O)Nc1cccc(Br)c1` (stereo not drawn) [compound 215, N-(3-bromophenyl)-3-methyl-5-oxo-1-phenyl-4,5-dihydro-1H-pyrazole-4-carboxamide], for which the concentration for half-maximal inhibition (IC50) in assay [1] is 100 to 1000 nM; in assay [2] it was 6 to 100 nM.
`CCCC(=O)c1cccc(NC(=O)C2C(=O)N(c3ccccc3)N=C2C)c1` (stereo not drawn) [compound 114, N-(3-butyrylphenyl)-3-methyl-5-oxo-1-phenyl-4,5-dihydro-1H-pyrazole-4-carboxamide]: the IC50 is ≥ 1000 nM and 100 to 1000 nM in assay [1]; 6 to 100 nM in assay [2].
As for `CC1=NN(c2ccccc2)C(=O)C1C(=O)Nc1cccc(-c2ncco2)c1` (stereo not drawn) [compound 124, 3-methyl-N-(3-(oxazol-2-yl)phenyl)-5-oxo-1-phenyl-4,5-dihydro-1H-pyrazole-4-carboxamide], the 50% inhibitory concentration (IC50) in assay [3] is over 100 nM; in assay [4], 100 to 1000 nM; in assay [1], 100 to 1000 nM; in assay [2] it was 6 to 100 nM.
Regarding `CC(=O)c1cccc(NC(=O)C2C(=O)N(c3ccccc3)N=C2C)c1` (stereo not drawn) [compound 183, N-(3-acetylphenyl)-3-methyl-5-oxo-1-phenyl-4,5-dihydro-1H yrazole-4-carboxamide], the figures for the 50% inhibitory concentration (IC50) in assay [1] and in assay [2] were at least 1000 nM and 6 to 100 nM, respectively.
`CC1=NN(c2cccc(C(=O)O)c2)C(=O)C1C(=O)Nc1cccc(-c2ccco2)c1` (stereo not drawn) [compound 159, 3-(4-((3-(furan-2-yl)phenyl)carbamoyl)-3-methyl-5-oxo-4,5-dihydro-1H-pyrazol-1-yl)benzoic acid]: the IC50 is over 100 nM in assay [3], at least 1000 nM in assay [4] and 6 to 100 nM in assay [2].
As for `CC1=NN(c2ccccc2)C(=O)C1C(=O)Nc1cccc(C(=O)N(C)C)c1` (stereo not drawn) [compound 220, N-(3-(dimethylcarbamoyl)phenyl)-3-methyl-5-oxo-1-phenyl-4,5-dihydro-1H-pyrazole-4-carboxamide], the concentration for half-maximal inhibition (IC50) is over 100 nM in assay [3], under 100 nM in assay [4], 100 to 1000 nM in assay [1] and 0.01 to 6 nM in assay [2].
`CC1=NN(c2ccccc2)C(=O)C1C(=O)Nc1cccc(C(F)(F)F)c1` (stereo not drawn) [compound 208, 3-methyl-5-oxo-1-phenyl-N-(3-(trifluoromethyl)phenyl)-4,5-dihydro-1H-pyrazole-4-carboxamide]: the half-inhibitory concentration (IC50) in assay [3] was over 100 nM; in assay [1] it was ≥ 1000 nM and 100 to 1000 nM; in assay [2], 6 to 100 nM.
As to `CC1=NN(c2ccccc2)C(=O)C1C(=O)Nc1cccc(C2CC2)c1` (stereo not drawn) [compound 119, N-(3-cyclopropylphenyl)-3-methyl-5-oxo-1-phenyl-4,5-dihydro-1H-pyrazole-4-carboxamide], the values for the IC50 in assay [3], in assay [1] and in assay [2] were 0.5 to 50 nM, 100 to 1000 nM and 0.01 to 6 nM, respectively.
Regarding `CC1=NN(c2ccccc2)C(=O)C1C(=O)Nc1cccc(-c2cnccn2)c1` (stereo not drawn) [compound 109, 3-methyl-5-oxo-1-phenyl-N-(3-(pyrazin-2-yl)phenyl)-4,5-dihydro-1H-pyrazole-4-carboxamide], the IC50 in assay [3] lay in the range of 50 to 100 nM; in assay [1] it was 100 to 1000 nM; in assay [2], 0.01 to 6 nM.
For the molecule `COc1cccc(N2N=C(C)C(C(=O)Nc3cccc(-c4ncc[nH]4)c3)C2=O)c1` (stereo not drawn) [compound 248], the IC50 in assay [3] is over 100 nM; in assay [2], 0.01 to 6 nM.
On to `CC1=NN(c2ccccc2)C(=O)C1C(=O)Nc1cccc(C(C)(F)F)c1` (stereo not drawn) [compound 141, N-(3-(1,1-difluoroethyl)phenyl)-3-methyl-5-oxo-1-phenyl-4,5-dihydro-1H-pyrazole-4-carboxamide], for which the IC50 in assay [3] is 0.5 to 50 nM; in assay [4], under 100 nM; in assay [1], under 100 nM; in assay [2], 0.01 to 6 nM.
As to `CC1=NN(c2cccc(-c3ncc(C)o3)c2)C(=O)C1C(=O)Nc1cccc(C(C)(F)F)c1` (stereo not drawn) [compound 229], the IC50 is over 100 nM in assay [3] and 0.01 to 6 nM in assay [2].
For `CC1=NN(c2cccc(C(F)(F)F)c2)C(=O)C1C(=O)Nc1cccc(-c2ncco2)c1` (stereo not drawn) [compound 257], in that order: over 100 nM and 6 to 100 nM.
`CC1=NN(c2cccc(C(=O)OC(C)C)c2)C(=O)C1C(=O)Nc1cccc(C(C)(F)F)c1` (stereo not drawn) [compound 236]: the IC50 in assay [3] fell in the range of 0.5 to 50 nM; in assay [2] it was 0.01 to 6 nM.
`COC(=O)c1cccc(N2N=C(C)C(C(=O)Nc3cccc(C(C)(F)F)c3)C2=O)c1` (stereo not drawn) [compound 261]: the half-inhibitory concentration (IC50) in assay [3] was in the range of 0.5 to 50 nM; in assay [2], 0.01 to 6 nM.
As for `CCc1cccc(NC(=O)C2C(=O)N(c3ccc4c(c3)OCO4)N=C2C)c1` (stereo not drawn) [compound 168], the concentration for half-maximal inhibition (IC50) in assay [3] lay within 0.5 to 50 nM; in assay [4], 100 to 1000 nM; in assay [2], 6 to 100 nM.
Regarding `COc1ccc(N2N=C(C)C(C(=O)Nc3cccc(C(C)(F)F)c3)C2=O)cn1` (stereo not drawn) [compound 242], the IC50 lay within 0.5 to 50 nM in assay [3] and 0.01 to 6 nM in assay [2].
Turning to `CCC(=O)c1cccc(NC(=O)C2C(=O)N(c3ccccc3)N=C2C)c1` (stereo not drawn) [compound 117, 3-methyl-5-oxo-1-phenyl-N-(3-propionylphenyl)-4,5-dihydro-1H-pyrazole-4-carboxamide], the 50% inhibitory concentration (IC50) is 0.5 to 50 nM in assay [3]; < 100 nM and 100 to 1000 nM in assay [1]; 0.01 to 6 nM in assay [2].
Consider `COc1ccc(N2N=C(C)C(C(=O)Nc3cccc(-c4ccco4)c3)C2=O)cn1` (stereo not drawn) [compound 246], for which the IC50 was in the range of 0.5 to 50 nM in assay [3] and 0.01 to 6 nM in assay [2].
In the case of `CC1=NN(c2cccc(-c3ncco3)c2)C(=O)C1C(=O)Nc1cccc(C(C)(F)F)c1` (stereo not drawn) [compound 230], the IC50 in assay [3] lay in the range of 0.5 to 50 nM; in assay [2] it was 0.01 to 6 nM.
`COc1cccc(N2N=C(C)C(C(=O)Nc3cccc(-c4ncco4)c3)C2=O)c1` (stereo not drawn) [compound 251]: the IC50 lay within 50 to 100 nM in assay [3] and 6 to 100 nM in assay [2].
For `CCc1cccc(NC(=O)C2C(=O)N(c3ccc(OC(C)C)cc3)N=C2C)c1` (stereo not drawn) [compound 142, N-(3-ethylphenyl)-1-(4-isopropoxyphenyl)-3-methyl-5-oxo-4,5-dihydro-1H-pyrazole-4-carboxamide], the half-maximal inhibitory concentration (IC50) in assay [3] is over 100 nM; in assay [4] it was 100 to 1000 nM; in assay [1] it was 100 to 1000 nM; in assay [2] it was 6 to 100 nM.
Turning to `CC1=NN(c2ccccc2)C(=O)C1C(=O)Nc1cccc(-c2ncc[nH]2)c1` (stereo not drawn) [compound 107, N-(3-(1H-imidazol-2-yl)phenyl)-3-methyl-5-oxo-1-phenyl-4,5-dihydro-1H-pyrazole-4-carboxamide], the concentration for half-maximal inhibition (IC50) was 0.5 to 50 nM in assay [3]; 100 to 1000 nM in assay [4]; ≥ 1000 nM and 100 to 1000 nM in assay [1]; 6 to 100 nM in assay [2].
With `COc1cccc(N2N=C(C)C(C(=O)Nc3cccc(-c4ccco4)c3)C2=O)c1` (stereo not drawn) [compound 247], the values for the IC50 in assay [3] and in assay [2] were 0.5 to 50 nM and 0.01 to 6 nM, respectively.
Take `CC1=NN(c2cccc(C(F)(F)F)c2)C(=O)C1C(=O)Nc1cccc(-c2cnccn2)c1` (stereo not drawn) [compound 166, 3-methyl-5-oxo-N-(3-(pyrazin-2-yl)phenyl)-1-(3-(trifuoromethyl)phenyl)-4,5-dihydro-1H-pyrazole-4-carboxamide]: the half-inhibitory concentration (IC50) in assay [3] is over 100 nM; in assay [4] it was < 100 nM (2×) and 100 nM to 1 µM; in assay [2] it was 0.01 to 6 nM.
Take `CCc1cccc(NC(=O)C2C(=O)N(c3ccc(OC)cc3)N=C2C)c1` (stereo not drawn) [compound 138, N-(3-ethylphenyl)-1-(4-methoxyphenyl)-3-methyl-5-oxo-4,5-dihydro-1H-pyrazole-4-carboxamide]: the IC50 lay within 0.5 to 50 nM in assay [3], 100 to 1000 nM in assay [1] and 6 to 100 nM in assay [2].
Consider `CC1=NN(c2cccc(-c3nnc(C)o3)c2)C(=O)C1C(=O)Nc1cccc(C(C)(F)F)c1` (stereo not drawn) [compound 280], for which the figures for the IC50 in assay [3] and in assay [2] were 0.5 to 50 nM and 0.01 to 6 nM, respectively.
For `COc1ccc(N2N=C(C)C(C(=O)Nc3cccc(C(C)(F)F)c3)C2=O)cc1-c1nccn1C` (stereo not drawn) [compound 300], in that order: 0.5 to 50 nM and 0.01 to 6 nM.
Regarding `CC1=NN(c2cccc(S(=O)(=O)N(C)C)c2)C(=O)C1C(=O)Nc1cccc(C(C)(F)F)c1` (stereo not drawn) [compound 252], the half-inhibitory concentration (IC50) in assay [3] is 50 to 100 nM; in assay [2], 0.01 to 6 nM.
On the same counts, the results for `CC1=NN(c2cccc(-c3ncco3)c2)C(=O)C1C(=O)Nc1cccc(-c2ncc[nH]2)c1` (stereo not drawn) [compound 279] are over 100 nM and 6 to 100 nM.
On to `CC1=NN(c2cccc(C(=O)OC(C)C)c2)C(=O)C1C(=O)Nc1cccc(-c2ncc[nH]2)c1` (stereo not drawn) [compound 235], for which the IC50 in assay [3] was over 100 nM; in assay [2], 6 to 100 nM.
Turning to `CC1=NN(c2ccc(S(=O)(=O)N(C)C)cc2)C(=O)C1C(=O)Nc1cccc(C(C)(F)F)c1` (stereo not drawn) [compound 253], the IC50 in assay [3] is 0.5 to 50 nM; in assay [2], 0.01 to 6 nM.
For the molecule `CC1=NN(c2ccc(C(F)(F)F)cc2)C(=O)C1C(=O)Nc1cccc(C(C)(F)F)c1` (stereo not drawn) [compound 264], the IC50 in assay [3] is 0.5 to 50 nM; in assay [2], 0.01 to 6 nM.
As for `CC1=NN(c2cccc(C(=O)O)c2)C(=O)C1C(=O)Nc1cccc(C(C)(F)F)c1` (stereo not drawn) [compound 258], the 50% inhibitory concentration (IC50) in assay [3] was over 100 nM; in assay [2], 0.01 to 6 nM.
Take `CC1=NN(c2cccc(C(F)(F)F)c2)C(=O)C1C(=O)Nc1cccc(-c2ccco2)c1` (stereo not drawn) [compound 165]: the 50% inhibitory concentration (IC50) in assay [3] was 0.5 to 50 nM; in assay [4], under 100 nM; in assay [2] it was 0.01 to 6 nM.
As to `CC1=NN(c2cccc(C(=O)O)c2)C(=O)C1C(=O)Nc1cccc(-c2cnccn2)c1` (stereo not drawn) [compound 169], the IC50 in assay [3] is over 100 nM; in assay [4], at least 1000 nM; in assay [2], 6 to 100 nM.
For the molecule `CC1=NN(c2cccc(-c3ncco3)c2)C(=O)C1C(=O)Nc1cccc(-c2cnccn2)c1` (stereo not drawn) [compound 227], the 50% inhibitory concentration (IC50) was in the range of 50 to 100 nM in assay [3] and 0.01 to 6 nM in assay [2].
Regarding `COC(=O)c1cccc(NC(=O)C2C(=O)N(c3ccccc3)N=C2C)c1` (stereo not drawn) [compound 206, 3-(3-methyl-5-oxo-1-phenyl-4,5-dihydro-1H-pyrazole-4-carboxamido)benzoate], the half-maximal inhibitory concentration (IC50) in assay [3] was in the range of 50 to 100 nM; in assay [1], 100 to 1000 nM; in assay [2], 0.01 to 6 nM.
On to `CCc1cccc(NC(=O)C2C(=O)N(c3ccccc3)N=C2C)c1` (stereo not drawn) [compound 184, N-(3-ethylphenyl)-3-methyl-5-oxo-1-phenyl-4,5-dihydro-1H-pyrazole-4-carboxamide], for which the IC50 in assay [1] lay within 100 to 1000 nM; in assay [2], 6 to 100 nM.
